From ChEMBL document CHEMBL1134057, “Synthesis of polyamine derivatives having non-hypotensive Ca2 +-permeable AMPA receptor antagonist activity” (Bioorg Med Chem Lett, 2001) come the findings set out here.

Test [1] deals with Glutamate receptor ionotropic, AMPA (Rattus norvegicus, UniProt P19490+P19491+P19492+P19493).
For test [2], the species on record is Rattus norvegicus. The following applies: dose 3 mg/kg; route intravenous.
Description: Change in systolic blood pressure(SBP) after intravenous administration of 3 mg/kg in rats compared with SBP before dosing
For test [3], the target named is Glutamate receptor ionotropic, AMPA (Rattus norvegicus) (UniProt P19491+P19492+P19493+P19490). Nature of the test: Antagonist activity for [Ca2+] permeable Ionotropic glutamate receptor AMPA expressed in Xenopus oocytes by injection of rat brain mRNA at 1 uM. In kind it is functional, cell-based. The settings on record: Oocyte.

The term IC50 denotes the concentration needed to halve the response being measured. A word on the inhibition: it is how much of the control response was suppressed.

In test [1], `O=C(Cc1cccc2ccccc12)NCC(=O)N1CCC(CNCCCCNCC2CCNCC2)CC1` registered an IC50 of 490 nM. The “Delta SBP” value in test [2] is -50 mmHg.
For `CN1CCCC1CCNCCCCNCC1CCN(C(=O)Cc2cccc3ccccc23)CC1` (stereo not given), in that order: 780 nM and -55 mmHg.
For `O=C(Cc1cccc2ccccc12)N1CCC(CNCCCCNCCN2CCCCC2)CC1`, in that order: 190 nM and 5 mmHg.
For `NCCNCCCCNCC1CCN(C(=O)Cc2cccc3ccccc23)CC1`, in that order: 330 nM and -50 mmHg.
In the case of `O=C(Cc1cccc2ccccc12)N1CCC(CNCCCCNCC2CCNCC2)CC1`, in test [1], the IC50 stood at 1300 nM. In test [2], the “Delta SBP” value was -120 mmHg.
For `O=C(Cc1cccc2ccccc12)N1CCC(CNCCCCNCC2CCN(c3ccncc3)CC2)CC1`, in that order: 170 nM and -43 mmHg.
Molecule `CN1CCCC1CNCCCCNCC1CCN(C(=O)Cc2cccc3ccccc23)CC1` (stereo not given) showed an inhibition in test [3] of 41%. In test [2], the “Delta SBP” value was 13 mmHg.
Molecule `O=C(Cc1cccc2ccccc12)N1CCC(CNCCCCNCCCn2ccnc2)CC1` displayed an IC50 in test [1] of 260 nM. Besides, in test [2], the “Delta SBP” value is recorded as -25 mmHg.
For `NCCCNCCCCNCC1CCN(C(=O)Cc2cccc3ccccc23)CC1` the same measures were 320 nM and -35 mmHg.
For `O=C(Cc1cccc2ccccc12)N1CCC(CNCCCCNCC2CCCNC2)CC1` (stereo not given), in that order: 820 nM and -58 mmHg.
For `NC(=O)C[C@@H](NC(=O)Cc1cccc2ccccc12)C(=O)N1CCC(CNCCCCNCC2CCNCC2)CC1` the same measures were 270 nM and -75 mmHg.
In the case of `O=C(Cc1cccc2ccccc12)NCCCCCC(=O)N1CCC(CNCCCCNCC2CCNCC2)CC1`, half-maximal inhibition in test [1] (IC50) was put at 420 nM. The “Delta SBP” value in test [2] is reported as -40 mmHg.
`CN1CCCCC1CNCCCCNCC1CCN(C(=O)Cc2cccc3ccccc23)CC1` (stereo not given): in test [3], the inhibition was 27%. Moreover, in test [2], the “Delta SBP” value was 11 mmHg.
In turn, `CN1CCC(CNCCCCNCC2CCN(C(=O)Cc3cccc4ccccc34)CC2)CC1` returned an IC50 in test [1] of 570 nM. For the same molecule, in test [2], the “Delta SBP” value is -50 mmHg.
For `O=C(Cc1cccc2ccccc12)N1CCC(CNCCCCNCCN2CCOCC2)CC1`, the inhibition in test [3] is 18%. Also, the “Delta SBP” value in test [2] was 0 mmHg.
Consider `O=C(Cc1cccc2ccccc12)N1CCC(CNCCCCNCC2CCCN2)CC1` (stereo not given), for which half-maximal inhibition in test [1] (IC50) was put at 730 nM. For the same molecule, the “Delta SBP” value in test [2] is listed as 0 mmHg.
`O=C(Cc1cccc2ccccc12)N1CCC(CNCCCCNCC2CCCCN2)CC1` (stereo not given): half-maximal inhibition in test [1] (IC50) was put at 1100 nM. Also, the “Delta SBP” value in test [2] stood at 0 mmHg.
`c1ccc2c(CCN3CCC(CNCCCCNCC4CCNCC4)CC3)cccc2c1` yielded an inhibition in test [3] of 28%.
